Format in all cases: biochemical
Test [1] relates to red click beetle luciferase. Description: Quenching phosphorescence from white luminometer plate, signal/background with red click beetle luciferase (Example IV). The note with it: relative to phosphorescence S/B before dye. The protocol:
(§1) Stocks of Amaranth (Aldrich, 120561), Benzopurpurin 4B (Aldrich # 22882), and Fluorescence Brightener 28 (Aldrich 475300) were prepared in DMSO (Sigma) at 100 μM. Luminometer plates (96-well) were purchased from Dynex Technologies. The luminometer plates were broken into pieces that would fit into single luminometer tubes (12 mm diameter) purchased from Promega Corporation. All experiments were performed in a lab under normal fluorescent lighting.
(§2) The experiment measured the signal/background ratio before and after the addition of colored compounds or DMSO. Luminescence measurements were taken from the empty luminescent tube in each experiment to quantitate background. A piece of white luminescent plate, 100 μl of Bright-Glo™ Reagent prepared according to the manufacturer's instructions (Promega Corporation), and 100 μl of Glo Lysis Buffer (Promega Corporation) were placed into the luminescent tube, and the luminescence was again measured. […] 2 μl of DMSO or one of the dyes in DMSO were then added to the tube, the sample was mixed, and the luminescence was measured a third time. This measurement captured the amount of luminescence emitted through the now-colored reagent or the reagent containing the DMSO carrier. Finally, 2 μl of luciferase was added to the tube, the sample was mixed, and the luminescence measured a final time. […]

The test system of test [2] is firefly luciferase. Description: Quenching phosphorescence from white luminometer plate, signal/background with firefly luciferase (Example IV). Conditions: relative to phosphorescence S/B before dye. The protocol: as §1, §2
In test [3] the target is firefly luciferase (Photinus pyralis, UniProt P08659). Description: Effect of quench reagents on firefly luciferase luminescent reaction (FIGS. 1-3). The note with it: luminescence normalized to value without the reagent. The protocol:
To test the effect of coelenterazine hh methyl ether on a firefly luciferase luminescent reaction, a luciferase reagent was prepared (270 μM coenzyme A (Pharmacia), 530 μM ATP (Pharmacia), 20 mM Tricine pH 7.8 (Fisher), 1 mM magnesium carbonate (Sigma), 0.1 mM ETDA (Sigma), 2.7 mM magnesium sulfate (Sigma), and 33 mM dithiothreitol (Sigma)) with varying concentrations of beetle luciferin (Promega), both above and below the concentration required for luciferase saturation (940 μM, 470 μM, 235 μM and 117.5 μM, saturation occurs at about 470 μM). […] Luminescence from firefly luciferase was measured by adding 20 μl of firefly luciferase (5×10^−14 moles/reaction) (Promega Corp.) in 1× Cell Culture Lysis Reagent (Promega Corporation) containing 1 mg/ml bovine serum albumin (BSA) to 100 μl of the luciferase reagents. Luminescence was normalized to the value integrated in the absence of coelenterazine hh methyl ether.
To test the effect of Tergitol® NP-9 on the firefly luciferase luminescent reaction, Luciferase Assay Reagent (Promega Corporation) was prepared according to the manufacturer's instructions. […] Luminescence was integrated after adding 20 μl of firefly luciferase (2.5×10^−14 moles/reaction) in 150 mM HEPES pH 7.4 and 1 mg/ml gelatin, to 100 μl of reagent. Luminescence was normalized to the value integrated for no detergent. […]

In test [4] the target is T1, Renilla luciferase (Renilla reniformis, UniProt P27652).
T1 sequence (P27652 1-311): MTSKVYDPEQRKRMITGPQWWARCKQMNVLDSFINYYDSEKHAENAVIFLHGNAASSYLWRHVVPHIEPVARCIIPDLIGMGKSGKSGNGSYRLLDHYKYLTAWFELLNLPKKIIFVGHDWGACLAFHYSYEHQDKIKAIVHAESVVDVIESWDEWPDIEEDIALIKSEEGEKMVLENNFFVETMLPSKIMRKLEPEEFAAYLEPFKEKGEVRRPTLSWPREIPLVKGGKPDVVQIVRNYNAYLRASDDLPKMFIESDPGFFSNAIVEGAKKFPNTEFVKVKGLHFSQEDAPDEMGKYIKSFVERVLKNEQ
Description: Selective quench of Renilla luciferase luminescent reaction (Example I). The note with it: for Fold quench of Renilla luciferase: Luciferase Assay Reagent with 1% Tergitol NP-9, 200 μM coelenterazine hh methyl ether, 1 mM berberine hemisulfate or combinations, initial divided by residual luminescence. The protocol: Each buffer was added to a vial of Luciferase Assay Substrate (pt. El 51, Promega Corporation) to make Luciferase Assay Reagent (LAR) plus the quenching agent(s). […] Luminescence was initiated by addition of 20 μl of enzyme solution to 100 μl of Renilla Luciferase Assay Reagent, and measured. […] Fold quench was calculated as the quotient of the initial Renilla luciferase luminescence divided by the residual Renilla luciferase luminescence.

Test [5] concerns horseradish peroxidase (HRP). As to the kind of experiment: Quenching light from horseradish peroxidase/luminol chemiluminescent reaction (Example III, FIG. 4). The protocol: 20 μl of 0.044 mg/ml horseradish peroxidase (HRP), prepared in KPO4, pH 6.5, was added to 100 μl of 50 mM NaHCO3, 2 μM H2O2+/−100 μM berberine hemisulfate. […] 100 μl of 10 mM Luminol (Sigma) in 55 mM NaOH was then added to initiate the chemiluminescent reaction and the luminescence was measured on a luminometer. Luminescence was captured at various times after reaction initiation.

firefly luciferase (Photinus pyralis, UniProt P08659), sequence (P08659 whole entry): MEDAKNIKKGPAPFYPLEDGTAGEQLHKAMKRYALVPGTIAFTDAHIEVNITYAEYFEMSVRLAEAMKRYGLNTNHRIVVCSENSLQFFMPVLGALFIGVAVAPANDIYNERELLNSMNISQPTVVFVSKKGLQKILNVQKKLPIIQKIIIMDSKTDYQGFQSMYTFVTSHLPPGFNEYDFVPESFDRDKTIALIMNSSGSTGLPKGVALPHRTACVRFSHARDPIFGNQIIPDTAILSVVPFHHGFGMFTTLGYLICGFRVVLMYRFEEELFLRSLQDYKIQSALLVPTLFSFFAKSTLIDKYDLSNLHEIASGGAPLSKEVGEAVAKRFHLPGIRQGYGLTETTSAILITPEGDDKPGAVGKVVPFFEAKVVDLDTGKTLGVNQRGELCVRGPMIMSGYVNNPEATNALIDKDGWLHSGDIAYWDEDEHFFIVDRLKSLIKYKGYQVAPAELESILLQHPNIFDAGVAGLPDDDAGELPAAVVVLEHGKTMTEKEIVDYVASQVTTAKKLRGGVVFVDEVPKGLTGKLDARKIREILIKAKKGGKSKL

Take `Cc1cc(-c2ccc(N=Nc3cc(S(=O)(=O)[O-])c4ccccc4c3N)c(C)c2)ccc1N=Nc1cc(S(=O)(=O)[O-])c2ccccc2c1N.[Na+].[Na+]` [Benzopurpurin 4B]: the “S/B Improvement” value in test [1] amounted to 4500%.
As to `O=S(=O)([O-])c1cc(Nc2nc(Nc3ccccc3)nc(N(CCO)CCO)n2)ccc1/C=C/c1ccc(Nc2nc(Nc3ccccc3)nc(N(CCO)CCO)n2)cc1S(=O)(=O)[O-].[Na+].[Na+]` [Fluorescence Brightener, Fluorescence Brightener 28], the “S/B Improvement” value in test [2] is 440%.
Turning to `COc1c(Cc2ccccc2)nc2c(Cc3ccccc3)nc(-c3ccccc3)cn12` [coelenterazine hh methyl ether, 2,8-dibenzyl-3-methoxy-6-phenyl-imidazo[1,2-a]pyrazine], the “effect on firefly luciferase luminescence” value in test [3] is “not affected”.
Turning to `OCCN(CCO)c1nc(N2CCCCC2)c2nc(N(CCO)CCO)nc(N3CCCCC3)c2n1` [dipyridamole], the “quench of the Renilla luciferase luminescent reaction” value in test [4] (at 1 mM) is on record as “about 35 fold”.
Take Tergitol NP-9: the “Fold quench of Renilla luciferase” value in test [4] worked out at 86.67 fold.
With berberine hemisulfate, the “effect on firefly luciferase luminescence” value in test [3] is reported as “not affected”. The “effect on horseradish peroxidase chemiluminescence (FIG. 4)” value in test [5] was “quenches”. For the same molecule, the “quench of horseradish peroxidase-dependent chemiluminescence” value in test [5] (100 μM berberine hemisulfate, luminol) is “over 500 fold”. Besides, the “Fold quench of Renilla luciferase” value in test [4] is reported as 46 fold.

The values above are taken from US20040224377A1, “Compositions and methods to quench light from optical reactions” (priority 2003, published 2004).
